From publication PMC5431883, “Enhancing Specific Disruption of Intracellular Protein Complexes by Hydrocarbon Stapled Peptides Using Lipid Based Delivery” (Scientific Reports, 2017) come the findings set out here.

In series [1] the target is T1, Mdm2:p53 complex (Homo sapiens, UniProt Q00987).
T1 construct: host or cells: HEK293
The series is described as follows: NanoBRET Mdm2:p53 live cell assay. Type of series: cell-based. As to conditions: HEK293 cells, 0% FCS versus 10% FCS. The protocol: all competitive types of experiments, it is assumed that [P]t > [L]st, otherwise considerable amounts of free labeled ligand would always be present and would interfere with measurements. Kd1 is the […]
experimentally determined as described in the previous paragraph. The FAM-labeled peptide was dissolved in dimethyl sulfoxide (DMSO) at 1 mM and diluted into experimental buffer. Readings were carried out with an Envision Multilabel Reader (PerkinElmer). Experiments were carried out […]
Tween 20 buffer. All titrations were carried out in triplicate. Curve-fitting was carried out using […]
Negative control titrations of the ligands under investigation were also carried out with the fluorescently labeled peptide (in the absence of MDM2) to ensure no interactions were occurring between the ligands and FAM-labeled peptide. […]
which would otherwise indicate an unintended interaction between the ligand and the FAM-labeled peptide to be displaced from the MDM2 binding site.
Nanobret Mdm2:p53 Cell Based Assay
HEK293 cells were seeded at a cell density of 250,000 cells per well into a 6 well plate and incubated overnight at 37 °C and 5% CO2 in DMEM with 0.3 mg/ml glutamine, 100 IU/ml penicillin, 100 μg/ml streptomycin and 10% fetal calf serum. Each well was transfected with a […]
(In general: Bioluminescence resonance energy transfer reports proximity on the nanometre scale.)

Series [2] has as its target T2, Mdm2 (1-125) (Homo sapiens, UniProt Q00987).
T2 construct: Purified MDM2 (1-125) protein was titrated against 50 nM carboxyfluorescein (FAM)-labeled; GST (N, cleaved yes); made in house; host or cells: E. coli BL21 DE3 (pGEX-6P-1)
As to the kind of experiment: Mdm2 competitive fluorescence anisotropy assay (FAM-labeled 12/1 peptide displacement). The class given is binding.

Series [3] concerns HEK293 cells. The series is described as follows: Lactate dehydrogenase (LDH) release assay in HEK293 cells. Type of series: cell-based. Conditions: 2 hour treatment, 12.5, 25 and 50 µM, normalised to 0.1% Triton X100 (Figure S1); for LDH release in HEK293 cells, absence of serum (in words): 0% FCS; for LDH release in HEK293 cells, high serum conditions (in words): 10% FCS. The protocol: T22 cells or HEK 293 cells were seeded into a 96-well plate at a cell density of 5000 cells per well. Cells were maintained in Dulbecco’s Minimal Eagle Medium (DMEM) with 10% fetal bovine serum (FBS) and 1% (v/v) penicillin/streptomycin. The cells were incubated for 24 hours followed by cell media removal and addition of 90 µl of DMEM either with or without 10% FCS. Cells were then treated with compounds/peptide for 2 hours in DMEM with or without 10% FBS. Final working concentration of DMSO was 1% v/v. Corresponding negative control wells with 1% DMSO only were also prepared. Cytosolic lactate dehydrogenase release was detected using the cytoTox 96® non-radioactive cytotoxicity Assay kit (Promega) as per manufacturer’s instructions. Measurements were carried out using an Envision multiplate reader (Perkin-Elmer). Maximum LDH release was defined as the amount of LDH released when cells were lysed in the presence of 0.1% TRITON X-100 and was used to normalize the results. […]
to induce LDH release in HEK293 cells after a 2 hour treatment period in A) the absence of FCS and B) the presence of 10% FCS. Compounds were tested at concentrations of 12.5 µM, 25 µM and 50 µM. Results were normalized to maximal LDH release as measured by treatment with 0.1% Triton X100.
(1 picture or pasted object on this page, not shown here)
On the technique in general: LDH leaks from cells whose membrane has failed.

Series [4] deals with T22 p53 reporter cells. The series is described as follows: p53 gene reporter assay (β-galactosidase) in T22 cells. Type of series: cell-based, murine. Conditions: 18 h, 1% DMSO, normalised to 25 µM Nutlin, 4 parameter fit to 10 point titration.
Protocol: T22 cells, which were stably transfected with a p53 responsive β-galactosidase reporter, were seeded into a 96-well plate at a cell density of 8000 cells per well. Cells were also maintained in Dulbecco’s Minimal Eagle Medium (DMEM) with 10% fetal calf serum (FCS) and 1% (v/v) penicillin/streptomycin. The cells were incubated for 24 hours and followed by cell media removal and replacement with 90 µl of fresh DMEM either containing 10% FCS or 0% FCS. 10 µl of each compound was then added directly to each well and incubated for 18 hours. Final working concentration of DMSO was 1% v/v. […] Measurements were carried out using an Envision multiplate reader (Perkin-Elmer). […] This was then used to normalize the experimental results.
The subject of series [5] is T22 cells. As to the kind of experiment: Lactate dehydrogenase (LDH) release assay in T22 cells. Type of series: cell-based, murine. As to conditions: for LDH Release (T22 Cells), 0% FCS (LDH50) / LDH Release (T22 Cells), 10% FCS (LDH50): 2 h treatment, normalised to 0.1% Triton X-100 lysis, 4 parameter fit to 10 point titration. The protocol: T22 cells or HEK 293 cells were seeded into a 96-well plate at a cell density of 5000 cells per well. Cells were maintained in Dulbecco’s Minimal Eagle Medium (DMEM) with 10% fetal bovine serum (FBS) and 1% (v/v) penicillin/streptomycin. The cells were incubated for 24 hours followed by cell media removal and addition of 90 µl of DMEM either with or without 10% FCS. Cells were then treated with compounds/peptide for 2 hours in DMEM with or without 10% FBS. Final working concentration of DMSO was 1% v/v. Corresponding negative control wells with 1% DMSO only were also prepared. Cytosolic lactate dehydrogenase release was detected using the cytoTox 96® non-radioactive cytotoxicity Assay kit (Promega) as per manufacturer’s instructions. Measurements were carried out using an Envision multiplate reader (Perkin-Elmer). Maximum LDH release was defined as the amount of LDH released when cells were lysed in the presence of 0.1% TRITON X-100 and was used to normalize the results.

Entries after “also recorded” stand apart in the source; their conditions may differ. Like-named read-outs stand apart in the source and are kept apart here. Positions of bridges follow the written chain, without caps; N, C: chain ends. Non-standard residues stand in square brackets, D forms with d. Residues, ends and D or L forms follow the SMILES beside them. R8 = C=CCCCCCC[C@@](C)(N)C(=O)O; S5 = C=CCCC[C@](C)(N)C(=O)O; Ahx = NCCCCCC(=O)O

T2 sequence (Q00987 1-125): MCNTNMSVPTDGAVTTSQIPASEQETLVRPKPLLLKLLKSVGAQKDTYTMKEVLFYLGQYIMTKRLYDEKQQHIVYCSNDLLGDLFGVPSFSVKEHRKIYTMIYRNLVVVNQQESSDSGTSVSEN
T1 sequence (Q00987 whole entry, one chain of several): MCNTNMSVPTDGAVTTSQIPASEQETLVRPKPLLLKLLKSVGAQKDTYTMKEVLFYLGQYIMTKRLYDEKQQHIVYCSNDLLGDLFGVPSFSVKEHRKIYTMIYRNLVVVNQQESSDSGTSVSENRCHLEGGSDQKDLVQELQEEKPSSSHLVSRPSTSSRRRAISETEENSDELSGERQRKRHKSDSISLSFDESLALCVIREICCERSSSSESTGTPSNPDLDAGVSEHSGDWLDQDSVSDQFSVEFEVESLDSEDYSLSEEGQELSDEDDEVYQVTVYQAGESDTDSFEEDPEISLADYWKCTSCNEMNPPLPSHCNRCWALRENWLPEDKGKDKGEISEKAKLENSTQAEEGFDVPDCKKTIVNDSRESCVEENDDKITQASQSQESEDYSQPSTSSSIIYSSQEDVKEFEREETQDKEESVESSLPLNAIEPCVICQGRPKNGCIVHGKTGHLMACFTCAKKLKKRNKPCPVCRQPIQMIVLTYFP

Consider `CC(=O)N[C@@H](CCCCN)C(=O)N[C@@H](CCCCN)C(=O)NCCCCCC(=O)N[C@H](C(=O)N[C@@H](CO)C(=O)N[C@@H](Cc1ccccc1)C(=O)N[C@]1(C)CCCCCCC=CCCC[C@@](C)(C(=O)N[C@@H](CCC(=O)O)C(=O)N[C@@H](CC(N)=O)C(=O)N[C@@H](Cc2ccccc2)C(N)=O)NC(=O)[C@H](CC(C)C)NC(=O)[C@H](CC(C)C)NC(=O)[C@H](C)NC(=O)[C@H](Cc2c[nH]c3ccccc23)NC(=O)[C@H](Cc2ccc(O)cc2)NC(=O)[C@H](CCC(=O)O)NC1=O)[C@@H](C)O` [VIP-82] (Ac-KK[Ahx]TSF[R8]EYWALL[S5]ENF-NH2; staple 7-14), for which the “improvement of NanoBRET IC50 in serum free conditions over high serum conditions” value in series [1] is 4.5 fold. Also, the “improvement in affinity for Mdm2 over the library template sequence (sMTIDE-02)” value in series [2] is listed as 2 fold. Also, the Kd (usually the constant that tells how readily two partners part at equilibrium) in series [2] (competitive fluorescence anisotropy, text refers to Table S1, read-out: Kd for binding to Mdm2 (as quoted in the text from Table S1)) came to 0.0244 ± 0.0023 µM. Further, in series [3], the “LDH release in HEK293 cells, absence of serum (in words)” value is reported as “remained inert” and the “LDH release in HEK293 cells, high serum conditions (in words)” value is “absence of LDH release”. Also, the EC50 in series [4] (0% FCS, read-out: P53 Activation (T22 Cells), 0% FCS (p53ACT50 / EC50)) amounted to 0.8 ± 0.1 µM. Moreover, the EC50 in series [4] (read-out: P53 Activation (T22 Cells), 10% FCS (p53ACT50 / EC50), 10% FCS) was found to be 10 ± 0.1 µM. In series [5], the “LDH Release (T22 Cells), 0% FCS (LDH50)” value was “did not cause any measurable LDH release; also recorded: No release” and the “LDH Release (T22 Cells), 10% FCS (LDH50)” value is on record as “No release”.

Consider `CC(=O)N[C@H](C(=O)N[C@@H](CO)C(=O)N[C@@H](Cc1ccccc1)C(=O)N[C@]1(C)CCCCCCC=CCCC[C@@](C)(C(N)=O)NC(=O)[C@H](CC(C)C)NC(=O)[C@H](CC(C)C)NC(=O)[C@H](C)NC(=O)[C@H](Cc2c[nH]c3ccccc23)NC(=O)[C@H](Cc2ccc(O)cc2)NC(=O)[C@H](CCC(=O)O)NC1=O)[C@@H](C)O` [sMTIDE-02], for which the “improvement of NanoBRET IC50 in serum free conditions over high serum conditions” value in series [1] stood at 9 fold. In series [3], the “LDH release in HEK293 cells, absence of serum (in words)” value is “induced significant amounts of LDH release” and the “LDH release in HEK293 cells, high serum conditions (in words)” value was “absence of LDH release”. In series [5], the “LDH Release (T22 Cells), 0% FCS (LDH50)” value stood at 50.5 ± 1.7 µM and the “LDH Release (T22 Cells), 10% FCS (LDH50)” value is given as “No release”. Moreover, the “cytotoxicity (LDH leakage) in the library screen, absence of serum (in words)” value in series [5] (absence of serum, within 2 hours after treatment) is recorded as “induced LDH leakage”.
